*1 amine or outer side, *2 acyl side, *3 side chain or, on linkers, in order; H or OH if unused. [ ]: non-standard residue; d: D form. The star is where a group is joined. Cys(Acm) = CC(=O)NCSC[C@H](N[*:1])C(=O)[*:2]; Phe(4-F) = N[C@@H](Cc1ccc(F)cc1)C(=O)O; 2Nal = N[C@@H](Cc1ccc2ccccc2c1)C(=O)O; Nle = CCCC[C@H](N)C(=O)O; Orn = NCCC[C@H](N)C(=O)O; Acm = CC(=O)NC*
Experiments:
[1] = test system: guinea pig tracheal smooth muscle; experiment: Tracheal relaxant activity of VIP analogs on isolated guinea pig tracheal rings; type: cell-based; settings: cumulative concentration response; responses as % of maximum response to VIP (10^-6 M=100%); at least three tissues pooled; linear regression
Experimental: The relaxant activity of the VIP analogs was studied in a model utilizing guinea pig trachea. [Wasserman, M. A. et al., in Vasoactive Intestinal Peptide, S. I. Said, ed., Raven Press, N.Y. 1982, pp 177-184]; All tissues were taken from male albino guinea pig weighing 400-600 g, anesthesized with urethane (2 g/kg, i.p.). After exanguination, the trachea were removed and divided into four ring segments (3 mm length). Each ring was suspended by 30 gauge stainless steel wires in a 10 mL jacketed tissue bath and attached via 4-0 silk thread to a Grass force displacement transducer (model FT03C, Grass Instruments Co., Quincy, Ma), for isometric recording of tension. The smooth muscle was bathed in modified Krebs solution of the following composition: NaCl, 120 mM; KCl, 4.7 mM; CaCl2, 2.5 mM; MgSO.4 7H2 O, 1.2 mM; NaHCO3, 25 mM; K2 HPO4 monobasic, 1.2 mM; and dextrose, 10 mM. Tissue baths were maintained at 37° C. and constantly bubbled with 95% O2 and 5% CO2. Responses were recorded on an 8 channel and a 4 channel Hewlett-Packard (model 7702B and 7754A, respectively) recorder (Hewlett-Packard, Paramus, N.J.). […] Frequent readjustments of tension were required during the 60 minute stabilization period which followed. Tissues were rinsed at 15 minute intervals.
Cumulative concentration response curves were obtained for each tissue by successive […] increases in the bath concentration of VIP or VIP analogs according to the method of VanRossum [Arch. Int. Pharmacodyn., 143, 299-330 (1963)]. Only one cumulative dose response curve was obtained on a single tissue. To minimize variability between tissues, relaxant responses were expressed as a percentage of the maximum response obtained to VIP (10^-6 M=100%) added at the end of each concentration response experiment. Responses obtained from at least three tissues were pooled and EC50 values were determined by linear regression.

guinea pigs = experiment: In vivo bronchodilator activity by tracheal instillation against histamine-induced bronchoconstriction; design: species or system guinea pig; settings: 100 μl, anesthetized male Hartley guinea pigs, histamine challenge 50 μg/kg i.v., inhibition of tracheal pressure increase
Experimental: The in vivo bronchodilator activity of VIP analogs in guinea pigs was assessed by the tracheal instillation route of administration. This technique utilized male guinea pigs (Hartley strain, Charles River) weighing 400-600 g. Animals were anesthetized with urethane (2 g/kg) intraperitoneally and a polyethylene cannula was inserted into the jugular vein for intravenous drug administration.
The animals were tracheotomized and dosing solutions of distilled water or test compound dissolved in distilled water were administered into the trachea, approximately three-quarter the distance to the carina with a pipette. The concentration of the dosing solution was adjusted to deliver a constant volume of 100 μl. The animals were placed supine for one minute to aid drug delivery to the lung. One minute later, spontaneous breathing was arrested with succinylcholine chloride (1.2 mg/kg) administered intravenously, and the animals were ventilized with a Harvard Model 680 small animal respirator set at 40 breaths/min and 4.0 cm^3 stoke volume. The animals were challenged with a maximal constrictory dose of histamine (50 μg/kg, i.v.) and tracheal pressure (cm of water) was recorded from a Statham pressure transducer (P 32 AA).
The change in tracheal pressure was averaged for at least 3 control and 3 drug-treated animals and percent inhibition was calculated. The relative potency of compounds administered by the instillation route was determined by administering various doses of test compound and calculating the median inhibitory dose (ID50 value). The ID50 was determined from log dose-reasons curves generated by at least 3 doses that caused inhibitory effects between 10% and 90%. The correlation coefficient for the regression line of each antagonist was always greater than 0.95.
For determination of the time course of inhibition for various compounds, the time between administration of compound and challenge with histamine was varied. The time course of activity was calculated as the time when inhibition decreased to 40%.

Ac--[2-Nal^10, Lys^12, Nle^17, Ala^19, Val^26, Thr^28, Gly^29,30, Met^31 ]--VIP (Ac-HSDAVFTDN[2Nal]TKLRKQ[Nle]AAKKYLNSVLTGGM-NH2; SMILES CCCC[C@H](NC(=O)[C@H](CCC(N)=O)NC(=O)[C@H](CCCCN)NC(=O)[C@H](CCCNC(=N)N)NC(=O)[C@H](CC(C)C)NC(=O)[C@H](CCCCN)NC(=O)[C@@H](NC(=O)[C@H](Cc1ccc2ccccc2c1)NC(=O)[C@H](CC(N)=O)NC(=O)[C@H](CC(=O)O)NC(=O)[C@@H](NC(=O)[C@H](Cc1ccccc1)NC(=O)[C@@H](NC(=O)[C@H](C)NC(=O)[C@H](CC(=O)O)NC(=O)[C@H](CO)NC(=O)[C@H](Cc1c[nH]cn1)NC(C)=O)C(C)C)[C@@H](C)O)[C@@H](C)O)C(=O)N[C@@H](C)C(=O)N[C@@H](C)C(=O)N[C@@H](CCCCN)C(=O)N[C@@H](CCCCN)C(=O)N[C@@H](Cc1ccc(O)cc1)C(=O)N[C@@H](CC(C)C)C(=O)N[C@@H](CC(N)=O)C(=O)N[C@@H](CO)C(=O)N[C@H](C(=O)N[C@@H](CC(C)C)C(=O)N[C@H](C(=O)NCC(=O)NCC(=O)N[C@@H](CCSC)C(N)=O)[C@@H](C)O)C(C)C) [Ac--(SEQ ID NO: 18)--NH2]
EC50 [1]: 0.24 nM | Bronchodilator activity in guinea pigs, ED50 (guinea pigs): 0.35 µg

Ac--[Ala^2, Glu^8, Lys^12, Nle^17, Ala^19, Val^26, Thr^28, Ala^29-31 ]--VIP (Ac-HADAVFTENYTKLRKQ[Nle]AAKKYLNSVLTAAA-NH2; SMILES CCCC[C@H](NC(=O)[C@H](CCC(N)=O)NC(=O)[C@H](CCCCN)NC(=O)[C@H](CCCNC(=N)N)NC(=O)[C@H](CC(C)C)NC(=O)[C@H](CCCCN)NC(=O)[C@@H](NC(=O)[C@H](Cc1ccc(O)cc1)NC(=O)[C@H](CC(N)=O)NC(=O)[C@H](CCC(=O)O)NC(=O)[C@@H](NC(=O)[C@H](Cc1ccccc1)NC(=O)[C@@H](NC(=O)[C@H](C)NC(=O)[C@H](CC(=O)O)NC(=O)[C@H](C)NC(=O)[C@H](Cc1c[nH]cn1)NC(C)=O)C(C)C)[C@@H](C)O)[C@@H](C)O)C(=O)N[C@@H](C)C(=O)N[C@@H](C)C(=O)N[C@@H](CCCCN)C(=O)N[C@@H](CCCCN)C(=O)N[C@@H](Cc1ccc(O)cc1)C(=O)N[C@@H](CC(C)C)C(=O)N[C@@H](CC(N)=O)C(=O)N[C@@H](CO)C(=O)N[C@H](C(=O)N[C@@H](CC(C)C)C(=O)N[C@H](C(=O)N[C@@H](C)C(=O)N[C@@H](C)C(=O)N[C@@H](C)C(N)=O)[C@@H](C)O)C(C)C) [Ac--(SEQ ID NO: 19)--NH2]
EC50 [1]: 0.23 nM | Bronchodilator activity in guinea pigs, ED50 (guinea pigs): 0.47 µg

Ac--[Ala^2, Lys^12, Nle^17, Ala^25, Leu^26, Lys^27,28, Gly^29,30, Thr^31 ]--VIP (Ac-HADAVFTDNYTKLRKQ[Nle]AVKKYLNALKKGGT-NH2; SMILES CCCC[C@H](NC(=O)[C@H](CCC(N)=O)NC(=O)[C@H](CCCCN)NC(=O)[C@H](CCCNC(=N)N)NC(=O)[C@H](CC(C)C)NC(=O)[C@H](CCCCN)NC(=O)[C@@H](NC(=O)[C@H](Cc1ccc(O)cc1)NC(=O)[C@H](CC(N)=O)NC(=O)[C@H](CC(=O)O)NC(=O)[C@@H](NC(=O)[C@H](Cc1ccccc1)NC(=O)[C@@H](NC(=O)[C@H](C)NC(=O)[C@H](CC(=O)O)NC(=O)[C@H](C)NC(=O)[C@H](Cc1c[nH]cn1)NC(C)=O)C(C)C)[C@@H](C)O)[C@@H](C)O)C(=O)N[C@@H](C)C(=O)N[C@H](C(=O)N[C@@H](CCCCN)C(=O)N[C@@H](CCCCN)C(=O)N[C@@H](Cc1ccc(O)cc1)C(=O)N[C@@H](CC(C)C)C(=O)N[C@@H](CC(N)=O)C(=O)N[C@@H](C)C(=O)N[C@@H](CC(C)C)C(=O)N[C@@H](CCCCN)C(=O)N[C@@H](CCCCN)C(=O)NCC(=O)NCC(=O)N[C@H](C(N)=O)[C@@H](C)O)C(C)C) [Ac--(SEQ ID NO: 20)--NH2]
EC50 [1]: 0.44 nM | Bronchodilator activity in guinea pigs, ED50 (guinea pigs): 0.05 µg

Ac--[Glu^8, Lys^12, Nle^17, Val^26, Thr^28, Gly^29,30, Met^31 ]--VIP (Ac-HSDAVFTENYTKLRKQ[Nle]AVKKYLNSVLTGGM-NH2; SMILES CCCC[C@H](NC(=O)[C@H](CCC(N)=O)NC(=O)[C@H](CCCCN)NC(=O)[C@H](CCCNC(=N)N)NC(=O)[C@H](CC(C)C)NC(=O)[C@H](CCCCN)NC(=O)[C@@H](NC(=O)[C@H](Cc1ccc(O)cc1)NC(=O)[C@H](CC(N)=O)NC(=O)[C@H](CCC(=O)O)NC(=O)[C@@H](NC(=O)[C@H](Cc1ccccc1)NC(=O)[C@@H](NC(=O)[C@H](C)NC(=O)[C@H](CC(=O)O)NC(=O)[C@H](CO)NC(=O)[C@H](Cc1c[nH]cn1)NC(C)=O)C(C)C)[C@@H](C)O)[C@@H](C)O)C(=O)N[C@@H](C)C(=O)N[C@H](C(=O)N[C@@H](CCCCN)C(=O)N[C@@H](CCCCN)C(=O)N[C@@H](Cc1ccc(O)cc1)C(=O)N[C@@H](CC(C)C)C(=O)N[C@@H](CC(N)=O)C(=O)N[C@@H](CO)C(=O)N[C@H](C(=O)N[C@@H](CC(C)C)C(=O)N[C@H](C(=O)NCC(=O)NCC(=O)N[C@@H](CCSC)C(N)=O)[C@@H](C)O)C(C)C)C(C)C) [Ac--(SEQ ID NO: 9)--NH2]
Bronchodilator activity in guinea pigs, ED50 (guinea pigs): 1.7 µg

Ac--[Leu^5, Orn^12, Ala^17,19, Thr^25, Val^26, Thr^28, Gly^29,30, Cys(Acm)^31 ]--VIP (Ac-HSDALFTDNYT[Orn]LRKQAAAKYLNSTVNTGGC(Acm)-NH2; SMILES CC(=O)NCSC[C@H](NC(=O)CNC(=O)CNC(=O)[C@@H](NC(=O)[C@H](CC(N)=O)NC(=O)[C@@H](NC(=O)[C@@H](NC(=O)[C@H](CO)NC(=O)[C@H](CC(N)=O)NC(=O)[C@H](CC(C)C)NC(=O)[C@H](Cc1ccc(O)cc1)NC(=O)[C@H](CCCCN)NC(=O)[C@H](C)NC(=O)[C@H](C)NC(=O)[C@H](C)NC(=O)[C@H](CCC(N)=O)NC(=O)[C@H](CCCCN)NC(=O)[C@H](CCCNC(=N)N)NC(=O)[C@H](CC(C)C)NC(=O)[C@H](CCCN)NC(=O)[C@@H](NC(=O)[C@H](Cc1ccc(O)cc1)NC(=O)[C@H](CC(N)=O)NC(=O)[C@H](CC(=O)O)NC(=O)[C@@H](NC(=O)[C@H](Cc1ccccc1)NC(=O)[C@H](CC(C)C)NC(=O)[C@H](C)NC(=O)[C@H](CC(=O)O)NC(=O)[C@H](CO)NC(=O)[C@H](Cc1c[nH]cn1)NC(C)=O)[C@@H](C)O)[C@@H](C)O)[C@@H](C)O)C(C)C)[C@@H](C)O)C(N)=O) [Ac--(SEQ ID NO: 8)--NH2]
Bronchodilator activity in guinea pigs, ED50 (guinea pigs): 0.28 µg

Ac--[p-F--Phe^6, Lys^12, Nle^17, Ala^19, Val^26, Thr^28, Gly^29,30, Cys(Acm)^31 ]--VIP (Ac-HSDAV[Phe(4-F)]TDNYTKLRKQ[Nle]AAKKYLNSVLTGG[Cys(Acm)]-NH2; SMILES CCCC[C@H](NC(=O)[C@H](CCC(N)=O)NC(=O)[C@H](CCCCN)NC(=O)[C@H](CCCNC(=N)N)NC(=O)[C@H](CC(C)C)NC(=O)[C@H](CCCCN)NC(=O)[C@@H](NC(=O)[C@H](Cc1ccc(O)cc1)NC(=O)[C@H](CC(N)=O)NC(=O)[C@H](CC(=O)O)NC(=O)[C@@H](NC(=O)[C@H](Cc1ccc(F)cc1)NC(=O)[C@@H](NC(=O)[C@H](C)NC(=O)[C@H](CC(=O)O)NC(=O)[C@H](CO)NC(=O)[C@H](Cc1c[nH]cn1)NC(C)=O)C(C)C)[C@@H](C)O)[C@@H](C)O)C(=O)N[C@@H](C)C(=O)N[C@@H](C)C(=O)N[C@@H](CCCCN)C(=O)N[C@@H](CCCCN)C(=O)N[C@@H](Cc1ccc(O)cc1)C(=O)N[C@@H](CC(C)C)C(=O)N[C@@H](CC(N)=O)C(=O)N[C@@H](CO)C(=O)N[C@H](C(=O)N[C@@H](CC(C)C)C(=O)N[C@H](C(=O)NCC(=O)NCC(=O)N[C@@H](CSCNC(C)=O)C(N)=O)[C@@H](C)O)C(C)C) [Ac--(SEQ ID NO: 76)--NH2]
Bronchodilator activity in guinea pigs, ED50 (guinea pigs): 017 µg
